In one test the target is METTL3/14 (Homo sapiens (Human), UniProt Q86U44). As to the kind of experiment: METTL3/14 methyltransferase assay (RapidFire mass spectrometry, RFMS). The format is biochemical. The note with it: 5 nM METTL3/14, 0.2 μM RNA substrate, 0.5 μM SAM, 60 minutes at room temperature. As for the experimental part: The enzymatic assay was established to determine IC50 values for inhibition of RNA methyltransferase activity. The enzyme used was full-length his-tagged METTL3 co-expressed with full length FLAG-tagged METTL14 in a baculovirus expression system. Enzymatic reactions were performed at room temperature in 384-well plates using a final reaction volume of 20 μL containing 20 mM TrisCl pH 7.6, 1 mM DTT, 0.01% Tween-20. 5 nM final concentration of METTL3/14 was pre-incubated with various compound concentrations for 10 minutes, followed by addition of 0.2 μM final concentration synthetic RNA substrate (5′P-[…]-3′) and 0.5 μM final concentration S-adenosyl-methionine (SAM). The reaction was incubated for a further 60 minutes at room temperature, and then quenched by the addition of 40 μL 7.5% TCA with two internal product standards (D4-SAH and 13C10-SAH). After termination, plates were sealed, centrifuged and stored at 4° C. until analysis.
Chain of METTL3/14 (Q86U44 whole entry): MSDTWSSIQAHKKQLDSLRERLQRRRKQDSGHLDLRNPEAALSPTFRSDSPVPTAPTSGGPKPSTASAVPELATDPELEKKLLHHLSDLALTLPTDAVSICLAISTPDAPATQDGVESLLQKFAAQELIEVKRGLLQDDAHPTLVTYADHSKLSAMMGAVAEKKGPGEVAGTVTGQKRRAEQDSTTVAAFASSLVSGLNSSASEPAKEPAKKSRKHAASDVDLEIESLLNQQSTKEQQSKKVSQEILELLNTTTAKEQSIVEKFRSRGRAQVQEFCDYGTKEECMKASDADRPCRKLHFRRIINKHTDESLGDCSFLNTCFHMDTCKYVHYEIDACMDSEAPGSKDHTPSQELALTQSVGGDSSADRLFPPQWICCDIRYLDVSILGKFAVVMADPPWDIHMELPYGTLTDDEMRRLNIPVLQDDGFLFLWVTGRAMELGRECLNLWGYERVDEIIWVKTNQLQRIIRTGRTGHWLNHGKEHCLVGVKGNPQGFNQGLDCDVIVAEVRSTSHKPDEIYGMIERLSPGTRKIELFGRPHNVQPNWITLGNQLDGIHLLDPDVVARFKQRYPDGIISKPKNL
Chain of METTL3/14 (Q9HCE5 whole entry partner): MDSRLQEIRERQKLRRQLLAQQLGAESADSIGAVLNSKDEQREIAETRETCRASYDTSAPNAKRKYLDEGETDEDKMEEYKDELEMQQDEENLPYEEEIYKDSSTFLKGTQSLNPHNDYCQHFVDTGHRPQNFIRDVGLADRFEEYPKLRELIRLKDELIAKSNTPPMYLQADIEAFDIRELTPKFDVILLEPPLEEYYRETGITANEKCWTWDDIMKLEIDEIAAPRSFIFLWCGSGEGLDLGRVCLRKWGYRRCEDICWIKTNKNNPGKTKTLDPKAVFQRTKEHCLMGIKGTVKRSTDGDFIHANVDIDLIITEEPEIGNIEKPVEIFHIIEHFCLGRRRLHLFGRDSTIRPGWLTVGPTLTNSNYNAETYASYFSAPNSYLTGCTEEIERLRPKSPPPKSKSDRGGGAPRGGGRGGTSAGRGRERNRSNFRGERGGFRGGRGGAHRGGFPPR
RNA methyltransferase activity was measured label free using the RapidFire™ mass spectrometry (RF/MS) platform. Stopped and stable assay plates were analyzed on the Agilent RF300 integrated autosampler/solid-phase extraction (SPE) system coupled to an ABSciex 4000 mass spectrometer for the generation of the product S-adenosyl homocysteine (SAH) and normalized to the ratio of signal of the two internal product standards, respectively. Solvent A was water containing 0.1% (v/v) TCA. Solvent B was acetonitrile/0.1% ammonium acetate (8:2, v/v). More specifically, plates were centrifuged at 4350 rpm for 10 min, samples were aspirated under vacuum for 600 ms, then loaded onto a C18 solid-phase extraction cartridge and washed for 3 s with solvent A at a flow rate of 1.5 mL/min. Retained product and internal standards were eluted with solvent B at a flow rate of 1 mL/min for 3 s and finally the cartridge was re-equilibrated with solvent A for 500 ms. The mass transition for the product (SAH) was 384.9/135.9 Da. Transitions of the two internal product standards (IS1: D4-SAH and IS2: 13C10-SAH) were 389.1/135.8 Da and 395.0/134.2 Da, respectively. Ratios of SAH/IS1 and SAH/IS2 were used for normalization of matrix effects. IC50 values were calculated based on dilution series of individual compounds. Potency of a compound was measured at varied inhibitor concentrations and normalized to control wells without RNA substrate and without inhibition (DMSO only).

The subject of a further test is Caov-3 cells. As to the kind of experiment: Caov3 cell proliferation CTG. The format is cell-based. To be noted: Homo sapiens, treated for 120 hours, CellTiter-Glo. As for the experimental part: Cell treatment and cell growth assessment: 18 hours post-seeding in white 384-Viewplate (6007480, PerkinElmer) at 1500 cells/well, Caov3 cells were treated for 120 hours with compounds inhibiting the METTL3/14 activity (10 serial semi-log dilutions, 30 μM as top concentration). Upon treatment, Coav-3 cells were incubated for 10 min at RT with the CellTiter-Glo reagent (G7571, Promega). Measurement of the luminescence signal was performed on a microplate reader (Ensight, PerkinElmer).
A general note: ATP-based viability assays read luminescence as a measure of living cells.

Another test has as its system KASUMI-1 cells. As to the kind of experiment: Kasumi cell proliferation CTG. It is filed as cell-based. To be noted: Homo sapiens, Kasumi 1, 120 h, treated for 120 hours, CellTiter-Glo. As for the experimental part:
Cell culture: KASUMI-1 cells (ACC20, Leibniz-Institut DSMZ Deutsche Sammlung von Mikroorganismen und Zellkulturen GmbH) were grown in RPMI 1640 (31870-025, Gibco) supplemented with 20% fetal bovine serum (F1524, Gibco), 1 mM sodium pyruvate (11360-039, Gibco) and 2 mM Glutamax (35050-038, Gibco) in a 5% CO2 humidified incubator at 37° C.
Cell treatment and cell growth assessment: KASUMI-1 cells were seeded in ultra-low attachment 384-well culture plate (MS-9384WZ, SBio) at a final concentration of 250 000 cells/ml (35 μL/well) and treated for 120 hours with compounds inhibiting the METTL3/14 activity (10 serial semi-log dilutions, 30 μM as top concentration). Upon treatment, Kasumi1 cells were incubated for 10 min at RT with the CellTiter-Glo reagent (G7571, Promega). Measurement of the luminescence signal was performed on a microplate reader (Ensight, PerkinElmer).

Each structure is given as a SMILES string.

What is called IC50 is the concentration that inhibits the measured activity by half. A low value points to greater potency in that assay. For the molecule `CC1(C)CCN(Cc2ccc([C@H]3C[C@@H](n4cc(Br)c5c(N)ncnc54)[C@H](O)[C@@H]3O)cc2)CC1` [Example 36, (1R,2S,3R,5R)-3-{4-amino-5-bromo-7H-pyrrolo[2,3-d]pyrimidin-7-yl}-5-{4-[(4,4-dimethylpiperidin-1-yl)methyl]phenyl}cyclopentane-1,2-diol], the 50% inhibitory concentration (IC50) at METTL3/14 worked out at 103 nM; in the test with Caov-3 cells, 7750 nM; with KASUMI-1 cells it was 5270 nM.
The corresponding values for `Nc1ncnc2c1c(Br)cn2[C@@H]1C[C@H](c2ccc(CNCC34CC(F)(C3)C4)cc2)[C@@H](O)[C@H]1O` [Example 34, (1R,2S,3R,5R)-3-{4-amino-5-bromo-7H-pyrrolo[2,3-d]pyrimidin-7-yl}-5-(4-{[({3-fluorobicyclo[1.1.1]pentan-1-yl}methyl)amino]methyl}phenyl)cyclopentane-1,2-diol] are 9.11 nM, 1880 nM and 2390 nM.
The corresponding values for `Nc1ncnc2c1c(Cl)cn2[C@@H]1C[C@H](c2ccc3cc(CNCC45CC(F)(C4)C5)[nH]c3c2)[C@@H](O)[C@H]1O` [Example 30, (1R,2S,3R,5R)-3-{4-amino-5-chloro-7H-pyrrolo[2,3-d]pyrimidin-7-yl}-5-(2-{[({3-fluorobicyclo[1.1.1]pentan-1-yl}methyl)amino]methyl}-1H-indol-6-yl)cyclopentane-1,2-diol] are 6.1 nM, 556 nM and 1290 nM.
Turning to `Nc1ncnc2c1ccn2[C@@H]1C[C@H](c2ccc3cc(CN4CCC5(CCC5)C4)[nH]c3c2)[C@@H](O)[C@H]1O` [Example 33, (1R,2S,3R,5R)-3-{4-amino-7H-pyrrolo[2,3-d]pyrimidin-7-yl}-5-[2-({6-azaspiro[3.4]octan-6-yl}methyl)-1H-indol-6-yl]cyclopentane-1,2-diol], the IC50 at METTL3/14 was found to be 6.22 nM; in the test with Caov-3 cells it was 276 nM; with KASUMI-1 cells, 1390 nM.
